From the supplement of paper PMC11061612

Tests used:
Experiment in all cases: Bliss excess, mean over the matrix (fraction); higher = more synergy
[1] = tested on: BL-41 (Burkitt's Lymphoma)
Procedure, shortened: (§1)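 Bliss excess equals the observed combination effect minus the expected value EA + EB − EA·EB, where EA and EB are the effects of each agent alone. Combination Emax is the second-highest inhibition within the matrix. Inhibition was scaled from CellTiter-Glo 2.0 luminescence, with 0 set by vehicle wells and 1 by blank wells, after 72 hours of two-drug dosing of cells plated in 1536-well plates.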

[2] = tested on: COLO-678 (Colorectal Carcinoma)
Procedure, shortened: as §1

[3] = tested on: DiFi (Colorectal Carcinoma)
Procedure, shortened: as §1

ES8 (Ewing's Sarcoma) = tested on: ES8 (Ewing's Sarcoma)
Procedure, shortened: as §1

[4] = tested on: EVSA-T (Breast Carcinoma)
Procedure, shortened: as §1

[5] = tested on: GR-ST (B-Lymphoblastic Leukemia)
Procedure, shortened: as §1

[6] = tested on: HL-60 (Acute Myeloid Leukemia)
Procedure, shortened: as §1

[7] = tested on: KARPAS-45 (T-Lymphoblastic Leukemia)
Procedure, shortened: as §1

[8] = tested on: KCL-22 (Chronic Myelogenous Leukemia)
Procedure, shortened: as §1

LN-18 (Glioblastoma) = tested on: LN-18 (Glioblastoma)
Procedure, shortened: as §1

MEL-JUSO (Melanoma) = tested on: MEL-JUSO (Melanoma)
Procedure, shortened: as §1

[9] = tested on: MOLT-16 (T-Lymphoblastic Leukemia)
Procedure, shortened: as §1

[10] = tested on: MS751 (Cervical Carcinoma)
Procedure, shortened: as §1

NCI-H2818 (Mesothelioma) = tested on: NCI-H2818 (Mesothelioma)
Procedure, shortened: as §1

[11] = tested on: P12-ICHIKAWA (T-Lymphoblastic Leukemia)
Procedure, shortened: as §1

[12] = tested on: SR (Other Blood Carcinomas)
Procedure, shortened: as §1

[13] = tested on: SW1417 (Colorectal Carcinoma)
Procedure, shortened: as §1

[14] = tested on: SW837 (Colorectal Carcinoma)
Procedure, shortened: as §1

[15] = tested on: TOV-112D (Ovarian Carcinoma)
Procedure, shortened: as §1

WM-115 (Melanoma) = tested on: WM-115 (Melanoma)
Procedure, shortened: as §1

Row | Compound | Bliss excess [1] | Bliss excess [2] | Bliss excess [3] | Bliss excess (ES8 (Ewing's Sarcoma)) | Bliss excess [4] | Bliss excess [5] | Bliss excess [6] | Bliss excess [7] | Bliss excess [8] | Bliss excess (LN-18 (Glioblastoma)) | Bliss excess (MEL-JUSO (Melanoma)) | Bliss excess [9] | Bliss excess [10] | Bliss excess (NCI-H2818 (Mesothelioma)) | Bliss excess [11] | Bliss excess [12] | Bliss excess [13] | Bliss excess [14] | Bliss excess [15] | Bliss excess (WM-115 (Melanoma))
1 | C=CCn1c(=O)c2cnc(Nc3ccc(N4CCN(C)CC4)cc3)nc2n1-c1cccc(C(C)(C)O)n1 [AZD1775] + C1CN(CCC1(C(=O)N[C@@H](CCO)C2=CC=C(C=C2)Cl)N)C3=NC=NC4=C3C=CN4 [Capivasertib] (first compound max 3 µM, partner max 3 µM) | 0.0156 | -0.0893 | 0.0272 | 0.0352 | 0.129 | -0.0771 | 0.0265 | -0.0046 | 0.035 | 0.0196 | -0.0352 | 0.0568 | 0.0003 | -0.0493 | 0.0076 | 0.0013 | -0.0368 | -0.0504 | 0.028 | -0.116
2 | CN(CCO)CC[C@H](CSc1ccccc1)Nc1ccc(S(=O)(=O)NC(=O)c2ccc(N3CCC([C@@H](O)c4ccccc4-c4ccc(Cl)cc4)CC3)cc2)cc1S(=O)(=O)C(F)(F)F [AZD4320] + C1CN(CCC1(C(=O)N[C@@H](CCO)C2=CC=C(C=C2)Cl)N)C3=NC=NC4=C3C=CN4 [Capivasertib] (first compound max 1 µM, 7x7, partner max 3 µM) | -0.0146 | -0.0741 | -0.0475 | -0.0427 | -0.0161 | 0.0039 | -0.0438 | 0.0265 | -0.0075 | -0.053 | -0.0472 | -0.0201 | -0.009 | -0.126 | 0.0119 | 0.095 | -0.0671 | -0.0453 | -0.0183 | 0.0144
3 | CN(CCO)CC[C@H](CSc1ccccc1)Nc1ccc(S(=O)(=O)NC(=O)c2ccc(N3CCC([C@@H](O)c4ccccc4-c4ccc(Cl)cc4)CC3)cc2)cc1S(=O)(=O)C(F)(F)F [AZD4320] + C=CCn1c(=O)c2cnc(Nc3ccc(N4CCN(C)CC4)cc3)nc2n1-c1cccc(C(C)(C)O)n1 [AZD1775] (first compound max 1 µM, partner max 1 µM) | 0.0361 | -0.0459 | 0.007 | 0.0959 | 0.0394 | -0.0585 | 0.0574 | -0.0041 | 0.0022 | 0.0152 | 0.042 | 0.0417 | -0.0494 | -0.0586 | 0.0899 | 0.254 | -0.106 | -0.0063 | -0.0106 | 0.0052
4 | CN(CCO)CC[C@H](CSc1ccccc1)Nc1ccc(S(=O)(=O)NC(=O)c2ccc(N3CCC([C@@H](O)c4ccccc4-c4ccc(Cl)cc4)CC3)cc2)cc1S(=O)(=O)C(F)(F)F [AZD4320] + CCN(CCO)CCCOc1ccc2c(Nc3cc(CC(=O)Nc4cccc(F)c4)[nH]n3)ncnc2c1 [AZD2811] (first compound max 1 µM, 7x7, partner max 1 µM) | -0.0172 | -0.0247 | -0.013 | 0.0276 | 0.156 | -0.0272 | -0.0281 | -0.0137 | 0.0572 | -0.0187 | 0.0289 | -0.0049 | 0.0064 | -0.0555 | 0.0103 | 0.0343 | -0.0306 | 0.0082 | 0.0419 | -0.0003
5 | CN(CCO)CC[C@H](CSc1ccccc1)Nc1ccc(S(=O)(=O)NC(=O)c2ccc(N3CCC([C@@H](O)c4ccccc4-c4ccc(Cl)cc4)CC3)cc2)cc1S(=O)(=O)C(F)(F)F [AZD4320] + CN(C)CCCOc1ccc(-c2ccc3ncc4c(c3c2)n(C2CCOCC2)c(=O)n4C)cn1 [AZD0156] (first compound max 1 µM, 7x7, partner max 1 µM) | 0.0153 | -0.081 | 0.0046 | 0.0079 | -0.0125 | -0.0358 | 0.0228 | -0.0326 | 0.0373 | -0.0015 | 0.0034 | -0.0592 | -0.0248 | -0.0501 | 0.024 | 0.0454 | -0.0567 | -0.0322 | -0.0078 | -0.0469
6 | CN(CCO)CC[C@H](CSc1ccccc1)Nc1ccc(S(=O)(=O)NC(=O)c2ccc(N3CCC([C@@H](O)c4ccccc4-c4ccc(Cl)cc4)CC3)cc2)cc1S(=O)(=O)C(F)(F)F [AZD4320] + C[C@@H]1COCCN1C2=NC(=NC(=C2)C3(CC3)[S@](=N)(=O)C)C4=C5C=CNC5=NC=C4 [AZD6738] (first compound max 1 µM, 7x7, partner max 10 µM) | -0.0221 | -0.0616 | -0.0044 | 0.155 | -0.0105 | -0.0413 | -0.0348 | -0.0069 | 0.0092 | -0.0705 | -0.0159 | -0.0095 | 0.0029 | -0.157 | -0.0133 | -0.0068 | -0.0757 | -0.0618 | 0.0134 | -0.0413
7 | CN(CCO)CC[C@H](CSc1ccccc1)Nc1ccc(S(=O)(=O)NC(=O)c2ccc(N3CCC([C@@H](O)c4ccccc4-c4ccc(Cl)cc4)CC3)cc2)cc1S(=O)(=O)C(F)(F)F [AZD4320] + Cc1cc2ncnn2cc1Nc1ncc2c(n1)n(C1CCOCC1)c(=O)n2C [AZD7648] (first compound max 1 µM, 7x7, partner max 10 µM) | 0.0115 | -0.0684 | -0.0203 | -0.0594 | -0.0237 | -0.0157 | 0.0074 | 0.042 | 0.0444 | 0.0064 | -0.0065 | -0.0059 | -0.0353 | -0.0715 | -0.002 | -0.0189 | -0.0426 | -0.0273 | -0.019 | -0.0054
8 | CN(CCO)CC[C@H](CSc1ccccc1)Nc1ccc(S(=O)(=O)NC(=O)c2ccc(N3CCC([C@@H](O)c4ccccc4-c4ccc(Cl)cc4)CC3)cc2)cc1S(=O)(=O)C(F)(F)F [AZD4320] + Cn1cnc2c(F)c(Nc3ccc(Br)cc3Cl)c(C(=O)NOCCO)cc21 [Selumetinib] (first compound max 1 µM, 7x7, partner max 3 µM) | 0.039 | 0.0536 | 0.0838 | -0.0479 | 0.0703 | -0.0417 | 0.0259 | -0.0248 | 0.0271 | 0.031 | -0.0081 | -0.0335 | 0.0636 | -0.0136 | 0.0748 | 0.0208 | 0.056 | -0.0184 | 0.0107 | 0.102
9 | COc1nnc2ccc(N3CCC(c4ccc(OCCN5CCN(C)C(=O)[C@H]5C)cc4)CC3)nn12 [AZD5153] + C=CCn1c(=O)c2cnc(Nc3ccc(N4CCN(C)CC4)cc3)nc2n1-c1cccc(C(C)(C)O)n1 [AZD1775] (first compound max 1 µM, partner max 1 µM) | -0.0454 | -0.0287 | -0.0761 | -0.0563 | -0.0108 | -0.0897 | -0.0519 | -0.0088 | -0.0578 | -0.0502 | 0.0131 | -0.0021 | 0.064 | 0.0033 | 0.0148 | -0.074 | -0.0254 | -0.0653 | -0.0434 | -0.11
10 | COc1nnc2ccc(N3CCC(c4ccc(OCCN5CCN(C)C(=O)[C@H]5C)cc4)CC3)nn12 [AZD5153] + CC1(C)CCC(CN2CCN(c3ccc(C(=O)NS(=O)(=O)c4ccc(NCC5CCOCC5)c([N+](=O)[O-])c4)c(Oc4cnc5[nH]ccc5c4)c3)CC2)=C(c2ccc(Cl)cc2)C1 [Venetoclax] (first compound max 1 µM, 7x7, partner max 1 µM) | -0.0551 | -0.121 | 0.0054 | -0.0594 | -0.0008 | -0.0399 | -0.0379 | 0.0433 | -0.0343 | 0.0348 | -0.0547 | 0.0309 | -0.0752 | -0.0487 | -0.0389 | -0.0209 | -0.0485 | -0.0514 | -0.0474 | -0.0717
11 | COc1nnc2ccc(N3CCC(c4ccc(OCCN5CCN(C)C(=O)[C@H]5C)cc4)CC3)nn12 [AZD5153] + CCN(CCO)CCCOc1ccc2c(Nc3cc(CC(=O)Nc4cccc(F)c4)[nH]n3)ncnc2c1 [AZD2811] (first compound max 1 µM, 7x7, partner max 1 µM) | -0.0369 | -0.0409 | -0.068 | -0.0119 | 0.0047 | -0.0238 | -0.0076 | -0.0171 | 0.0425 | -0.107 | -0.0003 | -0.0173 | 0.0349 | -0.0083 | 0.0024 | -0.0672 | -0.0301 | -0.0663 | -0.0297 | -0.0814
